Measurements taken from US9187784B2, “EphA4 is a disease modifier in motor neuron disease” (VIB VZW, priority 2011, dated 2015).
Marks after values point to notes of the source that are not given here.

Tests used:
EphA4 = EphA4 (Homo sapiens, UniProt P54764); details: Noberini et al.; cited from earlier work
[1] = tested on: non-transgenic or wild-type SOD1-expressing fish; experiment: axonal and total body length in non-transgenic or wild-type SOD1-expressing fish; format: in vivo; details: zebrafish, average ± s.e.m.
Description: Y-axes show motor axon length of non-transgenic (black bar) or SOD1WT-expressing (white bar) zebrafish embryos, injected with either atg-RTK2 (shaded bars, Panel A) or atg-RTK1 morpholino (shaded bars, Panel B). Ctr-RTK2 and ctr-RTK1 were used as controls. Error bars are s.e.m.
To identify disease-modifying genes in ALS in an unbiased way, knockdown screening was performed in the mutant SOD1 zebrafish model (reference 13), using a library of 303 translation blocking morpholinos (atg-mo), of which 58 were targeting genes presumed to be neuronally expressed (according to the NCBI database) and 245 randomly chosen targeting genes. […] The morpholino yielding the highest rescue in two separate experiments was studied further. It targets zebrafish receptor tyrosine kinase 2 (RTK2, also known as epha4b), which has 67% identity and 80% homology to the human orthologue EPHA4. Knockdown of RTK2 in fish expressing mutant SOD1 completely and dose-dependently rescued the motor axonopathy (both axonal length and aberrant branching) caused by three different SOD1 mutations: A4V, G93A and G37R (FIG. 1, Panels A-F; Table 2). […] Receptor tyrosine kinase 1 (RTK1, also known as epha4a), the fish paralogue of RTK2, has 83% identity and 92% homology to human EPHA4. RTK1 knockdown was dose-dependently and equally protective as RTK2 knockdown (FIG. 1, Panel G; Table 4). […]

[2] = tested on: mutant SOD1-overexpressing fish; experiment: mutant SOD1-induced motor axonopathy in zebrafish embryos (percentage affected embryos, motor axon length); format: in vivo; details: 30 hpf
Excerpt: FIG. 1: EphA4 knockdown rescues mutant SOD1-induced motor axonopathy. […] Abnormal branching is indicated with arrowhead. Y-axes show motor axon length of zebrafish embryos expressing wild-type SOD1 (black bar, Panels D-G) or mutant SOD1 (white bar, Panels D-G). Knockdown of RTK2 in SOD1A4V- (Panel D), SOD1G93A- (Panel E) and SOD1G37R- (Panel F) expressing fish was established by co-injection of increasing amounts of atg-RTK2 morpholino (shaded bars). RTK1 expression was inhibited in SOD1A4V-expressing fish by co-injection of atg-RTK1 morpholino (shaded bars, Panel G). Ctr-RTK2 and ctr-RTK1 were used as control. ANOVA and Bonferroni's multiple comparison tests were used for statistical analysis. Comparing axonal length in SOD1A4V fish injected with ctr-RTK2 (n=39) vs. different doses atg-RTK2: 3 ng (n=43, p=0.0059), 4.5 ng (n=37, p=0.0016, Panel D), SOD1G93A: ctr-RTK2 (n=60) vs. atg-RTK2: 1.5 ng (n=55, p=0.015), 3 ng (n=51, p=2.82×10-9), 4.5 ng (n=46, p=2.22×10-15, Panel E), SOD1G37R: ctr-RTK2 (n=37) vs. atg-RTK2: 3 ng (n=25, p=0.027), 4.5 ng (n=36, p=0.0018, Panel F) and SOD1A4V: ctr-RTK1 (n=49) vs. atg-RTK1: 1.5 ng (n=51, p=2.51×10-7), 3 ng (n=64, p=7.99×10-10), 4.5 ng (n=54, p<1×10-20, Panel G). Western blot of SOD1WT or SOD1A4V (1.76 ng) expressing zebrafish embryos (30 hpf), co-injected with either ctr-RTK1 or atg-RTK1 (4.5 ng). Sixty embryos were used per group with actin as the loading control (H). Immunostaining of rtk1 (green) in rhombomeres 3 and 5 and of ephrin-b2 (magenta) in rhombomere 4 in zebrafish embryos injected with either ctr-RTK1 or atg-RTK1 (4.5 ng). RTK1-depleted embryos show disorganized rhombomere boundaries (arrowhead, I, Scale bar 50 μm). Error bars are s.e.m.
FIG. 2: RTK2 knockdown protects motor axons against SOD1^A4V-induced injury. Effect of RTK2 knockdown, established by injection of splice-rtk2 morpholino, on the motor axon length of SOD1^A4V-expressing zebrafish embryos (30 hpf). SOD1^WT-expressing fish and a non-functional five-base pair-mismatch control morpholino (ctr-RTK2) were used as control (Panel A). ANOVA and Bonferroni's multiple comparison tests were used for statistical analysis: SOD1^A4V/ctr-RTK2 (n=56) vs. SOD1^A4V/spl-RTK2 (n=60, 1.79×10^−4). Spl-RTK2 was designed against the exon 2 splice site of the zebrafish RTK2 pre-mRNA and alternatively skipped out exon 2. RT-PCR on non-transgenic fish (lane 1), ctr-RTK2-injected fish (lane 2) and spl-RTK2-injected fish (lane 3) at 30 hpf. Functional RTK2 mRNA, containing exon 2, is indicated by the 818-bp product (upper band) while non-functional RTK2 mRNA, lacking exon 2 is indicated by the 156-bp product (lower band), 60 embryos each group (Panel B). Error bars are s.e.m.
FIG. 12: Pharmacological inhibition of EphA4 receptor signaling protects against mutant SOD1 pathology in vivo. Effect of treatment with Compound 1 (C1, 500 μM) on the motor axon length of zebrafish embryos (30 hpf). DMSO (1/250 dilution) was used as control (Panel A). ANOVA and Bonferroni's multiple comparison tests were used for statistical analysis: SOD1^A4V/C1 (n=68) vs. SOD1^A4V/DMSO (n=76, p=3.54×10^−5). Effect of KYL-peptide (3 mM) treatment of 60-day-old SOD1^G93A rats on disease onset (Panel B) and survival (Panel C). Artificial CSF (ACSF) was used as control. Average disease onset: 133 days (treated, n=21) versus 125 days (control, n=17, T-test p=0.044). Average survival: 148 days (treated, n=21) versus 139 days (controls, n=17, T-test p=0.041). Error bars are s.e.m.
Effect of RTK2 knockdown (established by injection of atg-RTK2 morpholino) on the percentage of affected wild-type SOD1 or mutant SOD1 (A4V, G93A, G37R) zebrafish embryos (30 hpf). Ctr-RTK2 morpholino was used as control. An embryo was considered as affected when it had more than 10% abnormally branched motor axons. Significance of mtSOD1/ctr-RTK2 (4.5 ng) vs. mtSOD1/atg-RTK2 (4.5 ng) was determined by Mann-Whitney test, * p=0.0075, ° p=0.039 and # p=0.0052. […]

Chain of EphA4 (P54764 20-986, species assumed): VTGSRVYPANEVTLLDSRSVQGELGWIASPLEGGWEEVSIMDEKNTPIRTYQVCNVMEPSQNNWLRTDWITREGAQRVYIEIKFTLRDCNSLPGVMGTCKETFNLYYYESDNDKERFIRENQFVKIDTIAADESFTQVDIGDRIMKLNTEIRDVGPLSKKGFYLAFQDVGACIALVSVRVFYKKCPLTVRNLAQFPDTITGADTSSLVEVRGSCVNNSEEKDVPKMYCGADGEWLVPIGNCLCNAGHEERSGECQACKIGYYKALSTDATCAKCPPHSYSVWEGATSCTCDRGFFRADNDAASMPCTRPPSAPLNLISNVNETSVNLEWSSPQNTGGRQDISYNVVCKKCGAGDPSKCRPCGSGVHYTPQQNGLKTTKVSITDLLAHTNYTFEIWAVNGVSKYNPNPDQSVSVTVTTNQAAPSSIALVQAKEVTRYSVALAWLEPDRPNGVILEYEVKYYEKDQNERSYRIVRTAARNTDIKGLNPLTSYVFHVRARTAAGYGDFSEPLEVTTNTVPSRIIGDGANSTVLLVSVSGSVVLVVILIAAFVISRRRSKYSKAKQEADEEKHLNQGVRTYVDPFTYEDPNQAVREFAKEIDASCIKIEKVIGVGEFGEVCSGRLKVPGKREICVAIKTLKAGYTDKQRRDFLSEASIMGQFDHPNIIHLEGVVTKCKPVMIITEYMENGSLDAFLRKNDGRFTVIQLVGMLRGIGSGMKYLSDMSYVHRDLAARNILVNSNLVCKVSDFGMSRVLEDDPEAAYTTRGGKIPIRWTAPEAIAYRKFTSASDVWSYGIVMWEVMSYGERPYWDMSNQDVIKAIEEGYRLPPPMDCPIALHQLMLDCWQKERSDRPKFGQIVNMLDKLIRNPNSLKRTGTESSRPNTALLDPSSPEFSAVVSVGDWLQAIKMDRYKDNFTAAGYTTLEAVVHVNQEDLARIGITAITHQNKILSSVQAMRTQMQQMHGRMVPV

| Compound | inhibition of ephrin binding to EphA4 (EphA4) | body length [1] [mm] | % affected embryos (more than 10% abnormally branched motor axons) ([2]; mtSOD1 A4V zebrafish embryos, morpholino 1.5 ng) | % affected embryos (more than 10% abnormally branched motor axons) ([2]; mtSOD1 A4V zebrafish embryos, morpholino 3.0 ng) | % affected embryos (more than 10% abnormally branched motor axons) ([2]; mtSOD1 A4V zebrafish embryos, morpholino 4.5 ng) | % affected embryos (more than 10% abnormally branched motor axons) ([2]; mtSOD1 G37R zebrafish embryos, morpholino 1.5 ng) | % affected embryos (more than 10% abnormally branched motor axons) ([2]; mtSOD1 G37R zebrafish embryos, morpholino 3.0 ng) | % affected embryos (more than 10% abnormally branched motor axons) ([2]; mtSOD1 G37R zebrafish embryos, morpholino 4.5 ng) | % affected embryos (more than 10% abnormally branched motor axons) ([2]; mtSOD1 G93A zebrafish embryos, morpholino 1.5 ng) | % affected embryos (more than 10% abnormally branched motor axons) ([2]; mtSOD1 G93A zebrafish embryos, morpholino 3.0 ng) | % affected embryos (more than 10% abnormally branched motor axons) ([2]; mtSOD1 G93A zebrafish embryos, morpholino 4.5 ng) [° %] | % affected embryos (more than 10% abnormally branched motor axons) ([2]; wtSOD1 zebrafish embryos, morpholino 4.5 ng) [%] |
| --- | --- | --- | --- | --- | --- | --- | --- | --- | --- | --- | --- | --- |
| Cc1ccc(C)n1-c1ccc(O)c(C(=O)O)c1 [compound 2] | selectively inhibit ephrin binding to EphA4 |  |  |  |  |  |  |  |  |  |  |  |
| 5′-AATCCAAAGGGTAGCCA-TTTTCAGG-′3 (antisense AATCCAAAGGGTAGCCATTTTCAGG; morpholino, chemistry not fully specified) [atg-RTK2] |  | 2.70±0.01 | 29 (41) % | 18 (44) % | 8* % | 34 (26) % | 8 (25) % | 16# % | 55 (47) % | 50 (54) % | 23 | 12 |
